Reference: US20150031760A1, “PHARMACEUTICAL COMPOSITION FOR PREVENTING OR TREATING NERVOUS SYSTEM DISORDERS COMPRISING SULFURETIN OR PHARMACEUTICALLY ACCEPTABLE SALT THEREOF” (Research and Business Foundation SUNGKYUNKWAN UNIVERSITY, priority 2010, published 2015)

What was measured:
PARP = assay: Western blot, PARP expression; type: cell-based, human; conditions: SH-SY5Y cells
Method: (§1) The incubator was maintained at a temperature of 37° C., and a mixed gas of 95% air and 5% CO2 was continuously supplied thereto to provide suitable conditions for cell culture. The cells were cultured in a 6-well plate or a 96-well plate at each of densities of 1×10^6 and 2×10^4 cells/well 24 hours before the experiment. […] Sulfuretin was used in ethanol and used at a final concentration of 0.1% or less.
(§2) In order to identify the effect of sulfuretin on the expression of proteins related to dementia, Alzheimer's disease, Parkinson's disease and strokes, a Western blot test was carried out.
(§3) After 24 hours, the supernatant of each well was collected and centrifuged at 400 g for 3 minutes, and the cells were washed with cold PBS and lysed with 100 μl of T-PER lysis buffer (Thermo, USA) for 30 minutes. The lysates were centrifuged at 10000 g at 4° C. for 15 minutes, and the supernatants were stored at […] until use as test samples. Proteins were quantitatively analyzed using a BCA assay kit (Thermo, USA) and separated within 8.5-12% SDS gel and then transferred to PVDF membranes. To examine the expression of the proteins, the development of fluorescence was analyzed by enhanced chemiluminescence (ECL). Specifically, the membrane was blocked with 5% skimmed non-fat milk for 1 hour and labeled with the primary antibodies, PARP, caspase-3, phospho-p38, phospho-JNK and β-actin at 4° C. overnight. Then, the membrane was washed three times with Tris-tween buffered saline (TTBS), and then labeled with horseradish peroxidase (HRP)-conjugated anti-rabbit and anti-mouse secondary antibodies at room temperature for 1 hour. Then, the membrane was washed five times with TTBS for 10 minutes. The washed film was developed by ECL using x-ray films, and concentrations were quantitatively analyzed using quantitative analysis program (Fujifilm, Japan).

SH-SY5Y and PC12 cells = assay: MTT (cell viability) test, SNP-induced cell death; type: cell-based
phospho-p38 = assay: Western blot, phospho-p38 expression; type: cell-based, human; conditions: SH-SY5Y cells
Method: as §1, §2, §3

BACE1 = assay: Western blot, BACE1 level; type: cell-based, human; conditions: Swedish APP mutant SH-SY5Y cells; sulfuretin 2.5, 5, 10 and 20 μM for 24 h; dose-dependent (p<0.001)
Method: For the experiments shown in FIGS. 11 to 13, SH-SY5Y and stable swedish APP mutant SH-SY5Y cells were grown in DMEM supplemented with 10% heat-inactivated FBS and 0.1% penicillin/streptomycin at 37° C. in a humidified atmosphere of 5% CO2 and 95% air. Cells were fed every three days and sub-cultured once they reached 80-90% confluency in […] cell culture dishes. Amyloid beta25-35 was prepared as a 20 mM stock immediately before use and diluted in PBS to the indicated final concentration. Prior to use, amyloid beta25-35 was dissolved in sterilized distilled water and was aggregated at 37° C. for five days. The test compounds were dissolved in DMSO and the stock solutions were added directly to the culture media to a final concentration of 0.1% (v/v) DMSO.
SH-SY5Y and stable swedish APP mutant SH-SY5Y cells (1×10^6 cells/well in 6-well plates) were incubated at 37° C. with or without 20 μM amyloid beta 25-35 for 6 or 24 h, with or without sulfuretin pretreatment, and then washed and harvested with ice-cold PBS and centrifuged at 400×g for 3 minutes. […] The protein concentration was determined using a protein assay kit (Thermo Scientific). […] Protein bands were quantified by densitometric analysis using Image Gauge 4.0 software (Fujifilm, Stamford, Conn., USA). […]

caspase-3 = assay: Western blot, caspase-3 expression; type: cell-based, human; conditions: SH-SY5Y cells
Method: as §1, §2, §3

Tau = assay: Western blot, amyloid beta25-35-induced hyperphosphorylation of Tau; type: cell-based, human; conditions: SH-SY5Y cells; pretreatment with sulfuretin at 20 μM; 20 μM amyloid beta25-35 (p<0.01)
[1] = hydrogen peroxide + sulfuretin 0.1 μg/ml
[2] = hydrogen peroxide + sulfuretin 0.5 μg/ml
[3] = hydrogen peroxide + sulfuretin 1 μg/ml

SMILES: O=C1/C(=C/c2ccc(O)c(O)c2)Oc2cc(O)ccc21 [sulfuretin]
- PARP expression (PARP; [1]): ≥ 70%
- PARP expression (PARP; [2]): ≥ 92%
- PARP expression (PARP; [3]): ≥ 99%
- viability at 0.1 µg/mL (SH-SY5Y and PC12 cells; sulfuretin 0.1 μg/ml): ≥ 44%
- viability at 0.5 µg/mL (SH-SY5Y and PC12 cells; sulfuretin 0.5 μg/ml): ≥ 56%
- viability at 1 µg/mL (SH-SY5Y and PC12 cells; sulfuretin 1 μg/ml): ≥ 64%
- viability at 5 µg/mL (SH-SY5Y and PC12 cells; sulfuretin 5 μg/ml): ≥ 163%
- phospho-p38 expression (phospho-p38; [1]): ≤ 157%
- phospho-p38 expression (phospho-p38; [2]): ≤ 133%
- phospho-p38 expression (phospho-p38; [3]): ≤ 53%
- BACE1 level (BACE1): significantly inhibited
- caspase-3 expression (caspase-3; [1]): ≥ 24%
- caspase-3 expression (caspase-3; [2]): ≥ 51%
- caspase-3 expression (caspase-3; [3]): ≥ 127%
- amyloid beta25-35-mediated increases in phosphorylation of Tau proteins (Tau): significantly inhibited
